Values joined by “and” are separate entries in the source; they are usually repeats but may differ in a detail not shown here. Equal entries are not always repeated.

This data set is described as follows: photoluminescence quantum yield (fraction); solvent given as SMILES.

Turning to `C(=C\c1ccc2ccccc2c1)/c1ccc(N(c2ccccc2)c2ccccc2)cc1`, the photoluminescence quantum yield by setting is: (in CC#N) 0.42; (in CCCCCC) 0.61.
Consider `CC1=CC(/C=C/c2ccc3ccc4cccc5ccc2c3c45)=[N+]2C1=C(c1ccccc1)c1c(C)cc(/C=C/c3ccc4ccc5cccc6ccc3c4c56)n1[B-]2(F)F`, for which, under “in CC1CCCO1”, the photoluminescence quantum yield came to 0.8.
Compound `CCn1c2ccccc2sc2c(C#N)c3[nH]c4ccccc4sc3c(C#N)c21` had a photoluminescence quantum yield (in ClC(Cl)Cl) of 0.32.
The compound `Cn1nc(-c2ccc(C#N)cc2)cc1-c1ccccc1` showed a photoluminescence quantum yield (in ClCCl) of 0.7.
The same measure, in the same setting: the same measure for `c1ccc(C2=C(c3ccccc3)c3cccc4c5c(cc(c34)O2)=NC2CCCCC2N=5)cc1` (stereo not given): 0.52.
As to `O=[N+]([O-])c1ccc([N+]2=Cc3ccc4c5c(ccc4c3O[B-]2(c2c(F)c(F)c(F)c(F)c2F)c2c(F)c(F)c(F)c(F)c2F)C=[N+](c2ccc([N+](=O)[O-])cc2)[B-](c2c(F)c(F)c(F)c(F)c2F)(c2c(F)c(F)c(F)c(F)c2F)O5)cc1`, the photoluminescence quantum yield turned out to be 0.83 (in Cc1ccccc1) and 0.66 (in ClCCl).
Compound `Cc1sc(Cl)cc1-c1nc(-c2ccccc2)[nH]c1-c1cc(Cl)sc1C` displayed a photoluminescence quantum yield (in CC#N) of 0.017.
`CC1(C)C2=[N+](CCCCCC(=O)NCCNC(=O)CCCCCN3/C(=C/C=C/C=C/C=C/2)C(C)(C)c2cc(S(=O)(=O)[O-])ccc23)c2ccc(S(=O)(=O)[O-])cc21`: the photoluminescence quantum yield by setting is: (in CO) 0.57; (in O) 0.33.
For `Cn1cc(-c2nc3ccccc3nc2C#Cc2ccccc2)c2ccccc21`, under “in ClCCl”, the photoluminescence quantum yield turned out to be 0.16.
`O=C1c2ccc3c4ccc5c6c(ccc(c7ccc(c2c37)C(=O)N1c1ccncc1)c64)C(=O)N(c1ccncc1)C5=O`: the photoluminescence quantum yield reads like this: (in C1CCOC1) 0.508; (in C1COCCO1) 0.847; (in CC(C)=O) 0.758; (in CC(C)O) 0.454; (in CCCCO) 0.46; (in CCO) 0.201. Also, the photoluminescence quantum yield by setting is: (in CCOC(C)=O) 0.337; (in CN(C)C=O) 0.438; (in CO) 0.206; (in CS(C)=O) 0.057; (in ClC(Cl)(Cl)Cl) 0.97; (in ClC(Cl)Cl) 0.97.
Regarding `c1ccc(C2=C(c3ccccc3)c3cccc4c3c(cc3nc5cc(-c6ccccc6)c(-c6ccccc6)cc5nc34)O2)cc1`, the photoluminescence quantum yield (in ClCCl) turned out to be 0.86.
As to `COC(=O)C(Cc1ccc2oc(-c3ccc(N(C)C)cc3)nc2c1)NC(=O)OC(C)(C)C` (stereo not given), the photoluminescence quantum yield is, setting by setting: (in C1CCCCC1) 1; (in C1CCOC1) 0.88; (in C1COCCO1) 1; (in CC1CCCO1) 1; (in CC1COC(=O)O1) 1; (in CC#N) 0.95. For the same compound, the photoluminescence quantum yield is, setting by setting: (in CC(C)=O) 1; (in CC(C)CC(C)(C)C) 0.95; (in CC(C)CO) 1; (in CC(C)O) 1; (in CC(C)OC(C)C) 1; (in CC(O)CO) 0.99. For the same compound, the photoluminescence quantum yield by setting is: (in CCC(C)CC) 0.92; (in CCCCC) 0.95; (in CCCCCC) 0.93; (in CCCCCCCCC) 1; (in CCCCCCCCCC) 0.93; (in CCCCCCCO) 1. Also, the photoluminescence quantum yield was determined as 1 (in CCCCCCO); 1 (in CCCCCO); 0.99 (in CCCCO); 0.98 (in CCO); 1 (in CCOC(C)=O); 0.99 (in CCOCC). For the same compound, the photoluminescence quantum yield was 0.92 (in CN(C)C=O); 0.81 (in CO); 0.7 (in COCCOC); 1 (in CS(C)=O); 0.9 (in Cc1ccccc1); 0.99 (in Cc1ccccc1C). The photoluminescence quantum yield (in ClC(Cl)Cl) worked out at 0.68; the photoluminescence quantum yield (in ClCCl) turned out to be 1; the photoluminescence quantum yield (in NC=O) is 0.71; the photoluminescence quantum yield (in OC1CCCCC1) turned out to be 0.91; the photoluminescence quantum yield (in OCCO) is 0.76; the photoluminescence quantum yield (in c1ccccc1) turned out to be 0.97.
`CN(C)c1ccc(-c2cc3c(s2)c(C(=O)c2ccccc2)cc(=O)n3Cc2ccccc2)cc1` came in with a photoluminescence quantum yield (in ClCCl) of 0.01.
Take `COc1ccc(-n2nc(C#N)c(N3CCC(N4CCCCC4)CC3)n2)cc1`: the photoluminescence quantum yield (in CC#N) stood at 0.156.
With `CN(C)c1ccc2ccc3oc(=O)c(-c4ccccc4)nc3c2c1`, the photoluminescence quantum yield (in c1ccccc1) came out at 0.152.
In turn, `CC1(C)C(/C=C/C2=C(Oc3ccc(CCN=C=S)cc3)C(=C/C=C3/N(CCCS(=O)(=O)[O-])c4ccccc4C3(C)C)/CCC2)=[N+](CCCS(=O)(=O)[O-])c2ccccc21` returned a photoluminescence quantum yield (in CO) of 0.07.
With `C[Si](C)(c1c2ccccc2cc2ccccc12)[Si](C)(C)c1c2ccccc2cc2ccccc12`, the photoluminescence quantum yield reads like this: (in C1CCCCC1) 0.07; (in CC#N) 0.07.
In turn, `CN(C)c1ccc(C(=Cc2ccc(C#N)cc2)c2ccc(N(C)C)cc2)cc1` yielded a photoluminescence quantum yield (in C1CCOC1) of 0.056.
As to `Cc1ccc(NC(=O)c2ccc(N(C)C)cc2)cc1`, the photoluminescence quantum yield was 0.0015 (in C1CCCCC1), 0.0028 (in C1CCOC1), 0.0027 (in CC#N) and 0.0034 (in CCOCC).
`N#Cc1c(-n2c3ccc(Br)cc3c3cc(Br)ccc32)c(-n2c3ccc(Br)cc3c3cc(Br)ccc32)c(C#N)c(-n2c3ccc(Br)cc3c3cc(Br)ccc32)c1-n1c2ccc(Br)cc2c2cc(Br)ccc21` gave a photoluminescence quantum yield (in Cc1ccccc1) of 0.45.
As for `COc1ccc2nc3c(nc2c1)c(-c1ccccc1)nn3C`, the photoluminescence quantum yield was 0.22 (in C1CCCCC1), 0.34 (in C1CCOC1) and 0.35 (in CC#N).
As to `CCCCCCCCCCCCc1ccc(-c2cc(C)[o+]c(C)c2)cc1`, the photoluminescence quantum yield runs as follows: (in CC#N) 0.36; (in ClCCl) 0.37.
For the compound `CC1=[N+]2C(=C(Oc3cc(C)c4c(c3)CC[C@@](C)(CCC[C@H](C)CCC[C@H](C)CCCC(C)C)O4)c3ccc(C)n3[B-]2(F)F)C=C1c1cc2n(c1)[B-](F)(F)[N+]1=CC=CC1=C2c1c(C)cc(C)cc1C`, the photoluminescence quantum yield stood at 0.45 (in C1CCCCC1) and 0.11 (in CCOC(C)=O).
With `COC(=O)C(NC(=O)OC(C)(C)C)c1ccc2oc(-c3ccc(OC(=O)c4ccccc4)cc3O)nc2c1` (stereo not given), the photoluminescence quantum yield by setting is: (in CC1CCCCC1) 0.03; (in CC#N) 0.01; (in CO) 0.003.
`CC1=CC(C)=[N+]2C1=Cc1c3ccccc3c(C#Cc3ccsc3)n1[B-]2(F)F`: the photoluminescence quantum yield was 1 (in CCCCCC); 0.72 (in CCCCCCCCO); 0.81 (in CCOC(C)=O); 0.67 (in CN(C)C=O); 0.8 (in ClCCl).
Under “in C1CCCCC1”, `COc1ccc(/C=C(\C)c2nc3ccccc3o2)cc1` came in with a photoluminescence quantum yield of 0.002.
As for `C[Si]1(C)c2ccccc2-c2cc3c(cc21)-c1ccccc1[Si]3(C)C`, the photoluminescence quantum yield (in ClCCl) is 0.45.
Same read-out and setting: under `CC(C)(C)c1ccc(N(c2ccccc2)c2ccc3ccc4c(N(c5ccccc5)c5ccc(C(C)(C)C)cc5)ccc5ccc2c3c54)cc1` stands 0.71.
As to `c1ccc2c(c1)[nH]c1c3[nH]c4ccccc4c3c3nsnc3c21`, the photoluminescence quantum yield runs as follows: (in CN(C)C=O) 0.05; (in Cc1ccccc1) 0.07; (in ClCCl) 0.06.
In turn, `CC1=C(C2=C(C)C(C)=[N+]3C2=Cc2cc(C)c(C)n2[B-]3(F)F)C2=Cc3cc(C)c(C)n3[B-](F)(F)[N+]2=C1C` returned a photoluminescence quantum yield (in ClCCl) of 0.05.
Same read-out and setting: under `CN(C)c1ccc(N2c3sc4ccccc4c3Sc3c2sc2ccccc32)cc1` stands 0.19.
As for `N#Cc1c(-n2c3ccccc3c3ccccc32)c(-n2c3ccccc3c3ccccc32)c(-n2c3ccccc3c3ccccc32)c(-n2c3ccccc3c3ccccc32)c1-n1c2ccccc2c2ccccc21`, the photoluminescence quantum yield by setting is: (in Cc1ccccc1) 0.75 and 0.7; (in c1cc(-c2cccc(-n3c4ccccc4c4ccccc43)c2)cc(-n2c3ccccc3c3ccccc32)c1) 0.65.
With `CC(C)CCCC(C)CCN1C(=O)c2ccc3c(-c4ccccc4)c4c5ccc6c7c(ccc(c(-c8ccccc8)c4c4ccc(c2c34)C1=O)c75)C(=O)N(CCC(C)CCCC(C)C)C6=O` (stereo not given), the photoluminescence quantum yield (in ClCCl) was determined as 0.13.
Take `COc1nc(Cl)nc(Nc2ccc3c4cccc5cccc(c6cccc2c63)c54)n1`: the photoluminescence quantum yield is 0.4 (in C1COCCO1), 0.32 (in CC#N), 0.37 (in CCCCOCCCC) and 0.33 (in CCOC(C)=O).
Consider `Cc1cc(C)c2c(c1)nc1c(=O)n(C)c(=O)nc-1n2C`, for which the photoluminescence quantum yield (in CC#N) amounted to 0.18.
The compound `O=C(O)c1ccc(-c2cnc(-c3ccc(N(c4ccccc4)c4ccccc4)cc3)s2)cc1` registered a photoluminescence quantum yield (in CO) of 0.4.
The compound `c1cc2ccc3cccc4c(-c5cc(-c6nccs6)nc(-c6nccs6)c5)cc(c1)c2c34` returned a photoluminescence quantum yield (in CC#N) of 0.645, a photoluminescence quantum yield (in CCCCCC) of 0.51, a photoluminescence quantum yield (in CO) of 0.214 and a photoluminescence quantum yield (in ClC(Cl)Cl) of 0.627.
For `CC(C)(C)c1cc2c3cc(C(C)(C)C)c(-c4cc5cc6c7cccc8cccc(c9cc(C(C)(C)C)cc(c5cc4C(C)(C)C)c96)c87)cc3cc3c4cccc5cccc(c(c1)c23)c54`, the photoluminescence quantum yield (in CC1CCCCC1) was found to be 0.64.

The values are drawn from the Deep4Chem optical property database.
